Laboratory results as given in US4514330A, “Carbon-7-substituted atinomycin D analogue” (Trustees of Boston University, priority 1983, dated 1985).

Columns and labels:
calf thymus DNA = test: DNA binding by visible absorption and CD spectra of DNA (P)-drug complex; settings: mole ratio DNA (P)/analogue = 10:1; 3b, 4b and 5b compared; 1.0×10^-5 M, pH 7
Excerpt: In FIG. 1, absorption (top) and circular dichroism (bottom) spectra in 0.01 M phosphate buffer (pH7) containing EDTA (10^-5 M) and Me2 SO (5%): 3b (...), 4b (---), 5b (--). Concentration of drug in each case was 1.0×10^-5 M. In this respect, they are almost indistinguishable from the known analogue 7-methoxyactinomycin D (5b), whose structure and physical properties we have previously reported. The absorption spectra of all these analogues in aqueous buffer are also almost superimposable. […] The absorption spectrum of the analogues above 240 nm is mainly due to the electronic configuration of the tricyclic chromophore. The CD spectrum in the same wavelength region is an indicator of peptide conformation in actinomycin analogues, because it is the peptide lactone ring that confers optical activity on the nearly planar chromophore. The nature of the CD spectra (3b, 4b and 5b) asserts that in these analogues there is an identical relationship between the chromophores and peptide lactones. This relationship is very important, because during binding to DNA, AMD and some analogues are known to rely on the cooperative role between the chromophore and the peptide lactones for their highly specific DNA-binding property.
Any change in the configurations of the peptide lactones on binding to DNA is generally expressed in the CD spectra of the analogue-DNA complexes. […] The changes in the visible absorption spectra of 3b, 4b and 5b and also their CD spectra observed after adding calf thymus DNA [mole ratio of DNA (P)/analogue=10:1] are identical (FIG. 2). In FIG. 2, the absorption (top) and CD spectra of the DNA (P)-drug complex (ratio 10:1). Concentrations, buffer and line types are as in FIG. 1.

DNA = test: DNA-binding mode, covalent and noncovalent (statements)

| Structure (SMILES) | changes in visible absorption and CD spectra after adding calf thymus DNA (calf thymus DNA) | covalent binding to DNA (DNA; 37° C. or higher, or longer incubation (~20 h)) | DNA-binding property relative to AMD (DNA; ambient temperature) |
| --- | --- | --- | --- |
| Cc1c2oc3c(C)c(OCC4CO4)cc(C(=O)N[C@@H]4C(=O)N[C@H](C(C)C)C(=O)N5CCC[C@H]5C(=O)N(C)CC(=O)N(C)[C@@H](C(C)C)C(=O)O[C@@H]4C)c3nc-2c(C(=O)N[C@@H]2C(=O)N[C@H](C(C)C)C(=O)N3CCC[C@H]3C(=O)N(C)CC(=O)N(C)[C@@H](C(C)C)C(=O)O[C@@H]2C)c(N)c1=O (stereo partly shown) [Compound 3b, 7-(2,3-Epoxypropoxy)actinomycin D] | identical | can bind covalently to DNA | closely parallel to AMD |
| Cc1c2oc3c(C)c(OCC(O)CO)cc(C(=O)N[C@@H]4C(=O)N[C@H](C(C)C)C(=O)N5CCC[C@H]5C(=O)N(C)CC(=O)N(C)[C@@H](C(C)C)C(=O)O[C@@H]4C)c3nc-2c(C(=O)N[C@@H]2C(=O)N[C@H](C(C)C)C(=O)N3CCC[C@H]3C(=O)N(C)CC(=O)N(C)[C@@H](C(C)C)C(=O)O[C@@H]2C)c(N)c1=O (stereo partly shown) [Compound 4b, 7-(2,3-Dihydroxypropoxy) actinomycin D] | identical | – | – |
